Results taken from article PMC3767463 (Journal of the American Chemical Society, 2013).

Assays:
DU145 cells = assay: MTT cell viability; type: cell-based, human; details: DU145 (non-functional p53), 0–100 μM, 48 h
HdmX level = assay: Western blot of LNCaP cell extracts; type: cell-based, human; details: 48 h, cyclotides 50 μM
LNCaP cells = assay: Propidium iodide flow cytometric cell cycle assay; type: cell-based, human; details: LNCaP cells treated 24 h; propidium iodide flow cytometry
caspase-3/7 = assay: Caspase-3/7 assay in LNCaP cells; type: cell-based, human; details: LNCaP cells treated 30 h
PC3 cells = assay: MTT cell viability; type: cell-based, human; details: PC3 (non-functional p53), 0–100 μM, 48 h
in vitro = details: human, human serum
p53 level = type: cell-based, human; details: LNCaP; 50 μM MCo-PMI, 8–48 h; western blot
[1] = mice, MCo-PMI 40 mg/kg i.v. daily
HBL100 cells = assay: MTT cell viability; details: HBL100 normal breast epithelial cells, 48 h, triplicate

CC[C@H](C)[C@@H]1NC(=O)[C@@H]2CSSC[C@@H]3NC(=O)[C@H](C(C)C)NC(=O)CNC(=O)CNC(=O)[C@H](C)NC(=O)[C@H](CO)NC(=O)[C@H](CC(C)C)NC(=O)[C@H](CC(C)C)NC(=O)[C@H](CC(N)=O)NC(=O)[C@H](Cc4c[nH]c5ccccc45)NC(=O)[C@H](Cc4ccc(O)cc4)NC(=O)[C@H](CCC(=O)O)NC(=O)[C@H](C)NC(=O)[C@H](Cc4ccccc4)NC(=O)[C@H](CO)NC(=O)[C@H]([C@@H](C)O)NC(=O)[C@@H]4CCCN4C(=O)[C@H](C)NC(=O)[C@H](CCCCN)NC(=O)[C@H](CO)NC(=O)[C@H](C)NC(=O)CNC(=O)[C@H](CO)NC(=O)CNC(=O)[C@H](CO)NC(=O)CNC(=O)[C@@H]4CSSC[C@H](NC(=O)[C@H](CC(=O)O)NC(=O)[C@H](CO)NC(=O)[C@H](CC(=O)O)NC(=O)[C@H](CCCNC(=N)N)NC(=O)[C@H](CCCNC(=N)N)NC(=O)[C@H](CSSC[C@H](NC1=O)C(=O)N[C@@H](CCCNC(=N)N)C(=O)NCC(=O)N[C@@H](CC(N)=O)C(=O)NCC(=O)N[C@@H](Cc1ccc(O)cc1)C(=O)N4)NC(=O)[C@H](CCCNC(=N)N)NC(=O)[C@H](CCC(N)=O)NC(=O)[C@H](CC(C)C)NC(=O)[C@H]([C@@H](C)CC)NC(=O)[C@H](CCCCN)NC(=O)[C@@H]1CCCN1C3=O)C(=O)N1CCC[C@H]1C(=O)NCC(=O)N[C@@H](C)C(=O)N2 [MCo-PMI]
Effect on cell viability (DU145 cells): unaffected | Effect on intracellular HdmX level (HdmX level): downregulated | Effect on cell cycle progression (LNCaP cells): depression of the S-phase fraction | Caspase-3/7 activation (caspase-3/7): dose-dependent caspase-3 activation | Effect on cell viability (PC3 cells): unaffected | half-life (in vitro): 30 ± 4 h | Time of peak p53 level post-treatment (p53 level): 36 to 48 h | Body weight throughout treatment [1]: maintained healthy weight | Organs and tissues at necropsy [1]: no gross abnormalities | Association constant rate to human serum proteins: 2400 M⁻¹ s⁻¹ | Dissociation constant rate from human serum proteins: 0.022 s⁻¹

COc1ccc(C2=N[C@@H](c3ccc(Cl)cc3)[C@@H](c3ccc(Cl)cc3)N2C(=O)N2CCNC(=O)C2)c(OC(C)C)c1 [Nutlin-3, reference compound]
Effect on cell viability (DU145 cells): unaffected | EC50, cytotoxicity to non-cancerous cells (HBL100 cells): 33 ± 5 µM | Effect on cell cycle progression (LNCaP cells): depression of the S-phase fraction | Effect on cell viability (PC3 cells): unaffected

cyclo(SGSDGGVCPKILQRCRRDSDCPGACICRGNGYCG) (natural protein, disulfide (positions not given here)) [cyclotide Momordica cochinchinensis trypsin inhibitor-I]
percent bound (serum proteins (human)): 80%
